Molecular target: Axl (Homo sapiens (Human), UniProt P30530)
Test: Phospho-Akt in-cell Western assay (Axl-antibody cross-linking stimulation)
Type: cell-based
Conditions: inhibition of Axl activity
Procedure, shortened: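 HeLa cells on poly-L-lysine, starved 24 hrs with Axl/Fc, pre-treated with compound 1 hr at 37° C., then stimulated 5 min with Axl primary/secondary antibody cluster. Fixed cells probed for phospho-Akt by chemiluminescent in-cell Western; signal normalized to crystal violet cell number.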

[1] = phospho-Akt in-cell Western assay

Chain of Axl (P30530 26-894): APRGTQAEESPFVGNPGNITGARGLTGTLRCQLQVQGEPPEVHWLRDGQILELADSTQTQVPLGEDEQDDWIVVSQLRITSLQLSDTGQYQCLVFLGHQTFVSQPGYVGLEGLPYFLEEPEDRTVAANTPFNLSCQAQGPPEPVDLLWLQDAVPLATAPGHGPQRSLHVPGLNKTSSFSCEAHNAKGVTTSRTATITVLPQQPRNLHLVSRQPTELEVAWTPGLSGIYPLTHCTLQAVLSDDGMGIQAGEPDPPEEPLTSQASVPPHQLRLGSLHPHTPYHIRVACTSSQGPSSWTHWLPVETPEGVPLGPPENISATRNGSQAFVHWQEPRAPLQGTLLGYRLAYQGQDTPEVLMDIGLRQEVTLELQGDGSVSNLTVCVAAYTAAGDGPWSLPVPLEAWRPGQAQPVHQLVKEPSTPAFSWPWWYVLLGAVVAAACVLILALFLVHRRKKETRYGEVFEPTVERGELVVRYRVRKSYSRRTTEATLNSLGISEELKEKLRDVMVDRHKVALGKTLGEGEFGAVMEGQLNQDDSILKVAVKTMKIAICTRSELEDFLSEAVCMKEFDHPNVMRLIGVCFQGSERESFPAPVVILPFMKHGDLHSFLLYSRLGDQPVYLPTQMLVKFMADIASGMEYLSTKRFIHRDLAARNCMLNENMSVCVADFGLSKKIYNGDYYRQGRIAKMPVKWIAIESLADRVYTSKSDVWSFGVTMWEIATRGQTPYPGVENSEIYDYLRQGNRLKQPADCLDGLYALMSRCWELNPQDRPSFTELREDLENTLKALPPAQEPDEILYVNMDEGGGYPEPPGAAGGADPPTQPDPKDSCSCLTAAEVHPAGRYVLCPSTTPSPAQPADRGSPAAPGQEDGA

IC50 [1] [nM]	SMILES	further results
< 1000	CN1CCN(c2ccc(Nc3nc(N)n(-c4nccc5[nH]c(=O)ccc45)n3)cc2F)CC1 [Compound 113, 5-(5-amino-3-(3-fluoro-4-(4-methylpiperazin-1-yl)phenylamino)-1H-1,2,4-triazol-1-yl)-1,6-naphthyridin-2(1H)-one]	–
–	Nc1nc(Nc2ccc(OCCN3CCCC3)cc2)nn1-c1nc(O)c2c(n1)CCCC2 [Compound 76, 2-(5-amino-3-(4-(2-(pyrrolidin-1-yl)ethoxy)phenylamino)-1H-1,2,4-triazol-1-yl)-5,6,7,8-tetrahydroquinazolin-4-ol]	IC50 (Hela cells, phospho-Akt readout, Table 1, formula (Ia1)): > 20000 nM
< 1000	Nc1nc(Nc2ccc(N3CCN(C4CC5CCC4C5)CC3)cc2)nn1-c1ncnc2sccc12 (stereo not shown) [Compound 127, N^3-(4-(4-(bicyclo[2.2.1]heptan-2-yl)piperazin-1-yl)phenyl)-1-(thieno[2,3-d]pyrimidin-4-yl)-1H-1,2,4-triazole-3,5-diamine]	–
–	Cc1csc2c(-n3nc(Nc4ccc(N5CCC(N6CCCCC6)CC5)c(F)c4)nc3N)nc(Cl)nc12 [Compound 210, 1-(7-methyl-2-chlorothieno[3,2-d]pyrimidin-4-yl)-N^3-(3-fluoro-4-(4-piperidin-1-ylpiperidin-1-yl)phenyl)-1H-1,2,4-triazole-3,5-diamine]	IC50 (Hela cells, phospho-Akt readout, Table 5, formula (Ia3)): < 1000 nM

Source: patent US10166216B2 (Rigel Pharmaceuticals, Inc., priority 2006, dated 2019)
